Measurements from paper PMC6199744, “Development of Chemical Proteomics for the Folateome and Analysis of the Kinetoplastid Folateome” (ACS Infectious Diseases, 2018).
Read-outs that look alike come from different tables or passages of the source.

How the values were obtained:
Format in all cases: binding
[1] = target: T1, HeLa cell extract proteins (Homo sapiens, UniProt P18206)
T1 construct: endogenous in cells; host or cells: HeLa cell extract
T1 sequence (P18206 1-1134): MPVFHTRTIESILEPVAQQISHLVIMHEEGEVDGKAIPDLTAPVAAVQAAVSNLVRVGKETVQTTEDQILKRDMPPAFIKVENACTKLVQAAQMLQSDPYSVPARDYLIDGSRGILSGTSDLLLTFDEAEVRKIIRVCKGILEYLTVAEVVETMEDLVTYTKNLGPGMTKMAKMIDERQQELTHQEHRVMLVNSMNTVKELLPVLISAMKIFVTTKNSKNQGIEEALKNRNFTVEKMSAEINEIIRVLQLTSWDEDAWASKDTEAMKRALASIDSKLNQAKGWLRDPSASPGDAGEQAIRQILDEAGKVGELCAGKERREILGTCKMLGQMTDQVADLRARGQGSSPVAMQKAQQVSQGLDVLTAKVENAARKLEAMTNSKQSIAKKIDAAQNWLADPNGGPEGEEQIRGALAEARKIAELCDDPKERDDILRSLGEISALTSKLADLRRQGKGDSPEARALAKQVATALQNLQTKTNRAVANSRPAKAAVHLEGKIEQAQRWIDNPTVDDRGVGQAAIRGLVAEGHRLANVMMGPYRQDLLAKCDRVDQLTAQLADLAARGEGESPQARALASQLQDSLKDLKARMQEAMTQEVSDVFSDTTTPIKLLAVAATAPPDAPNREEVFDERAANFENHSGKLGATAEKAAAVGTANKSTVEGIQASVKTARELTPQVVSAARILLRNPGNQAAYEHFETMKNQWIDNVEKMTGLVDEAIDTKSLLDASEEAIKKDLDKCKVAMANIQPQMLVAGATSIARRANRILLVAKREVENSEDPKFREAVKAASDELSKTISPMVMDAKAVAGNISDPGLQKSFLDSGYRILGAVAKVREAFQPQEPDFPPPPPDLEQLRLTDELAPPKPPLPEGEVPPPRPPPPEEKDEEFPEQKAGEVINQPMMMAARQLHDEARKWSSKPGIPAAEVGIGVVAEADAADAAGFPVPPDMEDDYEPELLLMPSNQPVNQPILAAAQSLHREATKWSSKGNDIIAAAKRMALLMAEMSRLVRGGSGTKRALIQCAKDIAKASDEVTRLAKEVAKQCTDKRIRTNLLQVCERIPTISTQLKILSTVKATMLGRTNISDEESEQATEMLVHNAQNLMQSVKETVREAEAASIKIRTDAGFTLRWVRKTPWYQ

[2] = target: T2, HeLa cell extract proteins (Homo sapiens, UniProt Q8NFH4)
T2 construct: endogenous in cells; host or cells: HeLa cell extract
T2 sequence (Q8NFH4 1-326): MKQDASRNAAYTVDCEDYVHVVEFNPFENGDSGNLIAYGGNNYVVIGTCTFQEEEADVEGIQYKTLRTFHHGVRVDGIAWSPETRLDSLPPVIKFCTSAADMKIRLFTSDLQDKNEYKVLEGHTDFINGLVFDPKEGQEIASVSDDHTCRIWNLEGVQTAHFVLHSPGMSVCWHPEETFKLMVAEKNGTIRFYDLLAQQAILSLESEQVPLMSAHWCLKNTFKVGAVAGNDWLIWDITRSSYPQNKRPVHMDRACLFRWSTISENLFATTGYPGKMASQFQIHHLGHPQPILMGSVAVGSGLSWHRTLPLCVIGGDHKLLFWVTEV

[3] = target: T3, HeLa cell extract proteins (Homo sapiens, UniProt Q9UH17)
T3 construct: endogenous in cells; host or cells: HeLa cell extract

[4] = target: T4, HeLa cell extract proteins (Homo sapiens, UniProt P17812)
T4 construct: endogenous in cells; host or cells: HeLa cell extract
T4 sequence (P17812 1-591): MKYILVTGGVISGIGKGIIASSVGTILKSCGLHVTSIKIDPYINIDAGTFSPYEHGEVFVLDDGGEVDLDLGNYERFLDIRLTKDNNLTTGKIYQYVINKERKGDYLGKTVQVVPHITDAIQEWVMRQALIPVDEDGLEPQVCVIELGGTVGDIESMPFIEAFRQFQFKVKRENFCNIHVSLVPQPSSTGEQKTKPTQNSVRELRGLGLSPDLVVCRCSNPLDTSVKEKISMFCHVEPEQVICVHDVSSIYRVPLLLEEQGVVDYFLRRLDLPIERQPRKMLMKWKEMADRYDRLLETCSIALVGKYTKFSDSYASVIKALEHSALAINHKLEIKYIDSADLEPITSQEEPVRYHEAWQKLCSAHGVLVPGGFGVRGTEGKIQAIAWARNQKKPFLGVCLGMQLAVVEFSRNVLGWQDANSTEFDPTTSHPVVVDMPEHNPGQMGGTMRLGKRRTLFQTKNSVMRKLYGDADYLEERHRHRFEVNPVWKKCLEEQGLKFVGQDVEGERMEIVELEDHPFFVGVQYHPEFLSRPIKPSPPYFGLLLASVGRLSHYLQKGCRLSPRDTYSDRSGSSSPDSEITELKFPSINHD

[5] = target: T5, HeLa cell extract proteins (Homo sapiens, UniProt P39656)
T5 construct: endogenous in cells; host or cells: HeLa cell extract
T5 sequence (P39656 43-456): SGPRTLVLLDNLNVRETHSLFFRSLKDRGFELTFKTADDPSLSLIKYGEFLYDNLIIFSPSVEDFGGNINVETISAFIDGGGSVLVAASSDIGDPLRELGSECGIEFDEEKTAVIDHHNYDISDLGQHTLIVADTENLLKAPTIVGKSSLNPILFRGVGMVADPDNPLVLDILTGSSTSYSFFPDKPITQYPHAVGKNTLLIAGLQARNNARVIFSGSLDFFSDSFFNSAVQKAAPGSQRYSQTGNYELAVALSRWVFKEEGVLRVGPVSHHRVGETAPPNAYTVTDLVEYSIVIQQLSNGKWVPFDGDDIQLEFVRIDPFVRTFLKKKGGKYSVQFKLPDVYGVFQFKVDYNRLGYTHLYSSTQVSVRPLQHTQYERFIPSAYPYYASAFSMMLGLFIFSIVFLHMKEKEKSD

T3 sequence (Q9UH17 whole entry): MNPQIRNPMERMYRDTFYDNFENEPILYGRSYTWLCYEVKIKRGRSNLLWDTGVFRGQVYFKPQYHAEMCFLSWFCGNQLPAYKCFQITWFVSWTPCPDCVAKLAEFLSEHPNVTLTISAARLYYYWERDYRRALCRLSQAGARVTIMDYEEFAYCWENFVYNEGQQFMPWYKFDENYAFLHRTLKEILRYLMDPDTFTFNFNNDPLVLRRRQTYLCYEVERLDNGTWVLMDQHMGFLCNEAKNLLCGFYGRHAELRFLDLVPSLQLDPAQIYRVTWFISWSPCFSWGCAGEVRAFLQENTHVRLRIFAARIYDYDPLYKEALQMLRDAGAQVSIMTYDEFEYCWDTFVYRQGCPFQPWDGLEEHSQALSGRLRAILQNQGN

SMILES	fold changes relative to vehicle control ([1]; protein VCL, HeLa)	fold changes relative to vehicle control ([2]; captured protein NUP37, HeLa)	fold changes relative to vehicle control ([3]; HeLa, protein APOBEC3B)	fold changes relative to vehicle control ([4]; HeLa, protein CTPS)	fold changes relative to vehicle control ([5]; captured protein DDOST, HeLa)	fold changes relative to vehicle control [1]	fold changes relative to vehicle control [2]	fold changes relative to vehicle control [3]	fold changes relative to vehicle control [4]	fold changes relative to vehicle control [5]	fold changes relative to vehicle control ([2]; HeLa, protein NUP37)	fold changes relative to vehicle control ([5]; HeLa, captured protein DDOST)
Nc1nc2cccc(-c3ccccc3)c2n1Cc1ccc(Cl)c(Cl)c1 [compound 3]	0.99	1.01	1.01	0.95	1.05							
Nc1nc2[nH]cc(CCc3ccc(C(=O)N[C@@H](CCC(=O)O)C(=O)O)cc3)c2c(=O)[nH]1 [PTX, pemetrexed]						1.06	0.91	0.89	0.85	0.85		
Nc1nc2c(c(=O)[nH]1)N(C=O)C(CNc1ccc(C(=O)N[C@@H](CCC(=O)O)C(=O)O)cc1)CN2 (some centres unmarked) [LEU, leucovorin]	0.98		0.93	0.93							0.86	0.8
CCCCCCOc1cccc(Cc2cnc(N)nc2N)c1 [compound 2]	1.8	0.98	1.25	1.09	1.1							
NCCOCCOCC(=O)Nc1nc2ncc(CNc3ccc(C(=O)NC(CCC(=O)O)C(=O)O)cc3)nc2c(=O)[nH]1 (centres unmarked) [compound 6]	1.21		1.02	0.95							0.9	0.95
CCCCCCOc1ccc(Cc2cnc(N)nc2N)cc1 [compound 1]	1.12	1.14	0.92	0.99	0.81							
NCCCNc1ccc(C(=O)NC(CCC(=O)O)C(=O)O)cc1 (centres unmarked) [compound 7]	0.96		0.94	0.98							0.96	1.07
